Data from US8802597B2, “Herbicidal pyrimidines” (E I du Pont de Nemours and Company, priority 2003, dated 2014).

Columns and labels:
Type in all cases: in vivo
[1] = tested on: redroot pigweed (Amaranthus retroflexus); test: Test A pre/postemergence
Outline: (§1)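 Visual injury scores on a 0–100 scale, 100 being complete control, were assigned roughly ten days after treatment by comparison with untreated greenhouse controls. Test chemicals, formulated with surfactant in non-phytotoxic solvent, were sprayed onto soil preemergence and onto 1–2-leaf plants 2–10 cm tall postemergence.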

[2] = tested on: giant foxtail (Setaria faberi); test: Test A pre/postemergence
Outline: as §1

[3] = tested on: velvetleaf (Abutilon theophrasti); test: Test A pre/postemergence
Outline: as §1

[4] = tested on: morningglory (Ipomoea spp.); test: Test A pre/postemergence
Outline: as §1

[5] = tested on: barnyardgrass (Echinochloa crus-galli); test: Test A pre/postemergence
Outline: as §1

[6] = tested on: crabgrass (Digitaria sanguinalis); test: Test A pre/postemergence
Outline: as §1

[7] = tested on: transplanted rice seedlings (Oryza sativa cv. ‘Japonica-M202’); test: Test E flooded paddy water application; settings: Flood, 21 days, scale 0 to 100 (0 no effect, 100 complete control)
Outline: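 Response scored visually on a 0–100 scale (100 = complete control) at 21 days against untreated pots. Treatment was into paddy water 3 cm deep over silt loam, with plants at the 2.0–2.5-leaf stage, grown under 16-h light at 29.5/26.7 °C day/night.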

[8] = tested on: late watergrass (Echinochloa oryzicola); test: Test E flooded paddy water application; settings: Flood, 21 days, scale 0 to 100 (0 no effect, 100 complete control)
Outline: (§2)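 Weeds sown in sterilized Tama silt loam (2.6% organic matter), greenhouse 29.5/26.7° C, 16-h photoperiod; at 2.0–2.5-leaf stage pots flooded to 3 cm and compound added to paddy water. Visual rating vs untreated controls after 21 days, 0 (no effect) to 100 (complete control).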

[9] = tested on: ducksalad (Heteranthera limosa); test: Test E flooded paddy water application; settings: Flood, 21 days, scale 0 to 100 (0 no effect, 100 complete control)
Outline: as §2

[10] = tested on: smallflower umbrella sedge (Cyperus difformis); test: Test E flooded paddy water application; settings: Flood, 21 days, scale 0 to 100 (0 no effect, 100 complete control)
Outline: as §2

[11] = tested on: purple redstem (Ammannia coccinea); test: Test E flooded paddy water application; settings: Flood, 21 days, scale 0 to 100 (0 no effect, 100 complete control)
Outline: as §2

[12] = tested on: junglerice (Echinochloa colona); test: Test E flooded paddy water application; settings: Flood, 21 days, scale 0 to 100 (0 no effect, 100 complete control)
Outline: as §2

[13] = tested on: bearded (brdd.) sprangletop (Leptochloa fusca ssp. fascicularis); test: Test E flooded paddy water application; settings: Flood, 21 days, scale 0 to 100 (0 no effect, 100 complete control)
Outline: as §2

[14] = tested on: water seeded rice seedlings (Oryza sativa cv. ‘Japonica-M202’); test: Test E flooded paddy water application; settings: Flood, 21 days, scale 0 to 100 (0 no effect, 100 complete control)
Outline: as §2

[15] = tested on: barnyardgrass (Echinochloa crus-galli); test: Test E flooded paddy water application; settings: Flood, 21 days, scale 0 to 100 (0 no effect, 100 complete control)
Outline: as §2

[16] = tested on: rice flatsedge (Cyperus iria); test: Test E flooded paddy water application; settings: Flood, 21 days, scale 0 to 100 (0 no effect, 100 complete control)
Outline: as §2

[17] = tested on: early watergrass (Echinochloa oryzoides); test: Test E flooded paddy water application; settings: Flood, 21 days, scale 0 to 100 (0 no effect, 100 complete control)
Outline: as §2

[18] = Postemergence, 125 g ai/ha, 0 to 100 scale (0 no effect, 100 complete control)
[19] = Postemergence, 500 g ai/ha, 0 to 100 scale (0 no effect, 100 complete control)
[20] = Preemergence, 125 g ai/ha, 0 to 100 scale where 0 is no effect and 100 is complete control, approximately ten days
[21] = Preemergence, 500 g ai/ha, 0 to 100 scale where 0 is no effect and 100 is complete control, approximately ten days

CNc1nc(-c2ccc(Cl)cc2)nc(C(=O)OC)c1Cl [Compound 111]
55: Plant response rating, Pigweed [1, 18]
30: Plant response rating, Crabgrass [6, 19] | Redstem plant response rating ([11]; 64 g ai/ha) | Redstem plant response rating ([11]; 125 g ai/ha)
10: Plant response rating, Barnyardgrass [5, 19]
20: Plant response rating, Morningglory [4, 18] | Redstem plant response rating ([11]; 32 g ai/ha)
50: Plant response rating, Morningglory [4, 19]
0: Plant response rating, Pigweed [1, 20] | Plant response rating, Pigweed [1, 21] | Plant response rating, Foxtail, Giant [2, 18] | Plant response rating, Foxtail, Giant [2, 19] | Plant response rating, Foxtail, Giant [2, 20] | Plant response rating, Foxtail, Giant [2, 21] | Plant response rating, Velvetleaf [3, 20] | Plant response rating, Velvetleaf [3, 21] | Plant response rating, Morningglory [4, 20] | Plant response rating, Morningglory [4, 21] | Plant response rating, Barnyardgrass [5, 18] | Plant response rating, Barnyardgrass [5, 20] | Plant response rating, Barnyardgrass [5, 21] | Plant response rating, Crabgrass [6, 20] | Plant response rating, Crabgrass [6, 21] | Rice, Transplanted plant response rating ([7]; 32 g ai/ha) | Rice, Transplanted plant response rating ([7]; 64 g ai/ha) | Rice, Transplanted plant response rating ([7]; 125 g ai/ha) | Rice, Transplanted plant response rating ([7]; 250 g ai/ha) | Plant response rating, Rice, Transplanted ([7]; 16 g ai/ha) | Watergrass, Late plant response rating ([8]; 32 g ai/ha) | Watergrass, Late plant response rating ([8]; 64 g ai/ha) | Watergrass, Late plant response rating ([8]; 125 g ai/ha) | Watergrass, Late plant response rating ([8]; 250 g ai/ha) | Plant response rating, Watergrass, Late ([8]; 16 g ai/ha) | Ducksalad plant response rating ([9]; 32 g ai/ha) | Plant response rating, Ducksalad ([9]; 16 g ai/ha) | Sedge, Umbrella plant response rating ([10]; 32 g ai/ha) | Sedge, Umbrella plant response rating ([10]; 64 g ai/ha) | Sedge, Umbrella plant response rating ([10]; 125 g ai/ha) | Plant response rating, Sedge, Umbrella ([10]; 16 g ai/ha) | Plant response rating, Redstem ([11]; 16 g ai/ha) | Junglerice plant response rating ([12]; 32 g ai/ha) | Junglerice plant response rating ([12]; 64 g ai/ha) | Junglerice plant response rating ([12]; 125 g ai/ha) | Junglerice plant response rating ([12]; 250 g ai/ha) | Plant response rating, Junglerice ([12]; 16 g ai/ha) | Sprangletop, Brdd. plant response rating ([13]; 32 g ai/ha) | Sprangletop, Brdd. plant response rating ([13]; 64 g ai/ha) | Sprangletop, Brdd. plant response rating ([13]; 125 g ai/ha) | Sprangletop, Brdd. plant response rating ([13]; 250 g ai/ha) | Plant response rating, Sprangletop, Brdd. ([13]; 16 g ai/ha) | Rice, Water Seeded plant response rating ([14]; 32 g ai/ha) | Rice, Water Seeded plant response rating ([14]; 64 g ai/ha) | Rice, Water Seeded plant response rating ([14]; 125 g ai/ha) | Rice, Water Seeded plant response rating ([14]; 250 g ai/ha) | Plant response rating, Rice, Water Seeded ([14]; 16 g ai/ha) | Barnyardgrass plant response rating ([15]; 32 g ai/ha) | Barnyardgrass plant response rating ([15]; 64 g ai/ha) | Barnyardgrass plant response rating ([15]; 125 g ai/ha) | Barnyardgrass plant response rating ([15]; 250 g ai/ha) | Plant response rating, Barnyardgrass ([15]; 16 g ai/ha) | Flatsedge, Rice plant response rating ([16]; 32 g ai/ha) | Flatsedge, Rice plant response rating ([16]; 64 g ai/ha) | Flatsedge, Rice plant response rating ([16]; 125 g ai/ha) | Flatsedge, Rice plant response rating ([16]; 250 g ai/ha) | Plant response rating, Flatsedge, Rice ([16]; 16 g ai/ha) | Watergrass, Early plant response rating ([17]; 32 g ai/ha) | Watergrass, Early plant response rating ([17]; 64 g ai/ha) | Watergrass, Early plant response rating ([17]; 125 g ai/ha) | Watergrass, Early plant response rating ([17]; 250 g ai/ha) | Plant response rating, Watergrass, Early ([17]; 16 g ai/ha)
85: Plant response rating, Pigweed [1, 19] | Plant response rating, Velvetleaf [3, 19] | Ducksalad plant response rating ([9]; 64 g ai/ha)
5: Plant response rating, Crabgrass [6, 18]
100: Ducksalad plant response rating ([9]; 125 g ai/ha) | Ducksalad plant response rating ([9]; 250 g ai/ha)
75: Plant response rating, Velvetleaf [3, 18] | Sedge, Umbrella plant response rating ([10]; 250 g ai/ha) | Redstem plant response rating ([11]; 250 g ai/ha)
